Measured values taken from patent US9409905B2, “Antibacterial compounds and methods for use” (PTC THERAPEUTICS, INC., priority 2011, dated 2016).
≈ marks a conversion by molar mass, not a printed value.

Tests used:
[1] = tested on: E. coli 25922; assay: Antibacterial activity, microbroth dilution MIC (Table 1); format: cell-based, Escherichia coli; settings: Escherichia coli; microbroth dilution; control Gram-negative E. coli 25922 strain; read-out: MIC, 25922
Outline: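 Potency is reported as minimum inhibitory concentration in μg/mL, determined by broth microdilution as the lowest level of compound that stops growth visible to the eye.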

[2] = tested on: Acinetobacter baumannii (A. baumannii) BAA747; assay: Antibacterial activity, MIC (Table 4); format: cell-based; settings: A. baumannii BAA747, read-out: MIC, BAA747
From the text: (§1) The antibacterial activity from a microbroth dilution method may be presented as the minimum inhibitory concentration (MIC in μg/mL). The MIC value is the lowest concentration of drug which prevents macroscopically visible growth under test conditions.
(§2) Antibacterial activity of test compounds against the Gram-negative Acinetobacter baumannii (A. baumannii) BAA747 and Klebsiella pneumoniae (K. pneumoniae) 35657 bacterium and the resistant A. baumannii MXX2240 and K. pneumoniae MXX1232 strains are shown in Table 4. The MMX strains are multi-drug resistant clinical isolates.

[3] = tested on: Klebsiella pneumoniae (K. pneumoniae) 35657; assay: Antibacterial activity, MIC (Table 4); format: cell-based; settings: K. pneumoniae 35657, read-out: MIC, 35657
From the text: as §1, §2

[4] = tested on: Escherichia coli (E. coli) BAS849; assay: Antibacterial activity, microbroth dilution MIC (Table 1); format: cell-based; settings: microbroth dilution, super sensitive Gram-negative E. coli BAS849, read-out: MIC, BAS849
Outline: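 Values are MICs (μg/mL): the smallest drug amount at which macroscopically visible bacterial growth is absent under assay conditions, from a microdilution method in broth.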

[5] = tested on: Staphylococcus aureus (S. aureus) 29213; assay: as above; format: cell-based; settings: microbroth dilution, Gram-positive S. aureus 29213, read-out: MIC, 29213
Outline: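 Each strain is exposed to test compound in a microbroth dilution series; visible growth is scored macroscopically, and the lowest growth-free concentration is recorded as MIC in μg/mL.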

[6] = tested on: E. coli LZ3111; assay: Antibacterial activity, MIC, quinolone resistant strain (Table 2); format: cell-based; settings: Escherichia coli, LZ3111, read-out: MIC LZ3111
Outline: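 Growth inhibition assessed by serial drug dilution in broth; endpoint was absence of macroscopically visible growth, reported as MIC, μg/mL.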

[7] = tested on: Pseudomonas aeruginosa (P. aeruginosa) 27853; assay: Antibacterial activity, MIC (Table 5); format: cell-based; settings: P. aeruginosa 27853, read-out: MIC, 27853
From the text: as §1
Antibacterial activity of test compounds against the Gram-negative bacterium Pseudomonas aeruginosa (P. aeruginosa) 27853 is shown in Table 5.

[8] = tested on: A. baumannii MXX2240; assay: Antibacterial activity, MIC, resistant strain (Table 4); format: cell-based; settings: Acinetobacter baumannii, MXX2240; resistant A. baumannii MMX2240, multi-drug resistant clinical isolate; read-out: MIC, MMX2240
From the text: as §1, §2

[9] = tested on: K. pneumoniae MXX1232; assay: as above; format: cell-based; settings: Klebsiella pneumoniae, MXX1232; resistant K. pneumoniae MMX1232, multi-drug resistant clinical isolate; read-out: MIC, MMX1232
From the text: as §1, §2

CCc1c(-c2ccc3c(c2)cc2n3C[C@H](CN)[C@@H]2NC)[nH]c(=O)c(C(=O)O)c1O.Cl.Cl (relative stereo) [Cpd 421, 6-(cis-2-(aminomethyl)-1-(methylamino)-2,3-dihydro-1H-pyrrolo[1,2-a]indol-7-yl)-5-ethyl-4-hydroxy-2-oxo-1,2-dihydropyridine-3-carboxylic acid bis-hydrochloride]
MIC [1]: 3.5 to 12.5 µg/mL
MIC [2]: 12.5 to 150 µg/mL
MIC [3]: 12.5 to 150 µg/mL
MIC [4]: 1 to 3.5 µg/mL
MIC [5]: 12.5 to 150 µg/mL
MIC [6]: 12.5 to 150 µg/mL
MIC [7]: 12.5 to 150 µg/mL
MIC [8]: 12.5 to 150 µg/mL
MIC [9]: 12.5 to 150 µg/mL

Cc1c(-c2ccc3c(c2)cc(CNCCN)n3C)[nH]c(=O)c(C(=O)O)c1O [Cpd 343, 6-(2-((2-aminoethylamino)methyl)-1-methyl-1H-indol-5-yl)-4-hydroxy-5-methyl-2-oxo-1,2-dihydropyridine-3-carboxylic acid]
MIC [1]: 12.5 to 150 µg/mL (≈ 33.7 to 405 µM)
MIC [2]: 12.5 to 150 µg/mL (≈ 33.7 to 405 µM)
MIC [3]: 12.5 to 150 µg/mL (≈ 33.7 to 405 µM)
MIC [4]: 12.5 to 150 µg/mL (≈ 33.7 to 405 µM)
MIC [5]: 12.5 to 150 µg/mL (≈ 33.7 to 405 µM)
MIC [6]: 12.5 to 150 µg/mL (≈ 33.7 to 405 µM)
MIC [7]: 12.5 to 150 µg/mL (≈ 33.7 to 405 µM)
MIC [8]: 12.5 to 150 µg/mL (≈ 33.7 to 405 µM)
MIC [9]: 12.5 to 150 µg/mL (≈ 33.7 to 405 µM)

Cc1c(-c2ccc3cc[nH]c3c2)[nH]c(=O)c(C(=O)O)c1O [Cpd 424, 4-hydroxy-6-(1H-indol-6-yl)-5-methyl-2-oxo-1,2-dihydropyridine-3-carboxylic acid]
MIC [1]: 12.5 to 150 µg/mL (≈ 44 to 528 µM)
MIC [2]: 12.5 to 150 µg/mL (≈ 44 to 528 µM)
MIC [3]: 12.5 to 150 µg/mL (≈ 44 to 528 µM)
MIC [4]: 3.5 to 12.5 µg/mL (≈ 12.3 to 44 µM)
MIC [5]: 3.5 to 12.5 µg/mL (≈ 12.3 to 44 µM)
MIC [6]: < 1 µg/mL
MIC [7]: 12.5 to 150 µg/mL (≈ 44 to 528 µM)
MIC [8]: < 1 µg/mL
MIC [9]: 12.5 to 150 µg/mL (≈ 44 to 528 µM)

CC(C)c1c(-c2ccc3c(c2)cc(CN(C)C)n3C)[nH]c(=O)c(C(=O)O)c1O [Cpd 318, 6-(2-((dimethylamino)methyl)-1-methyl-1H-indol-5-yl)-4-hydroxy-5-isopropyl-2-oxo-1,2-dihydropyridine-3-carboxylic acid]
MIC [1]: 1 to 3.5 µg/mL (≈ 2.61 to 9.13 µM)
MIC [2]: 12.5 to 150 µg/mL (≈ 32.6 to 391 µM)
MIC [3]: 3.5 to 12.5 µg/mL (≈ 9.13 to 32.6 µM)
MIC [4]: < 1 µg/mL
MIC [5]: 12.5 to 150 µg/mL (≈ 32.6 to 391 µM)
MIC [6]: 12.5 to 150 µg/mL (≈ 32.6 to 391 µM)
MIC [7]: 12.5 to 150 µg/mL (≈ 32.6 to 391 µM)
MIC [8]: 12.5 to 150 µg/mL (≈ 32.6 to 391 µM)
MIC [9]: 12.5 to 150 µg/mL (≈ 32.6 to 391 µM)

CCc1c(-c2ccc3c(c2)cc2n3CC(NC)CC2)[nH]c(=O)c(C(=O)O)c1O.Cl (stereo not drawn) [Cpd 414, 5-ethyl-4-hydroxy-6-(7-(methylamino)-6,7,8,9-tetrahydropyrido[1,2-a]indol-2-yl)-2-oxo-1,2-dihydropyridine-3-carboxylic acid hydrochloride]
MIC [1]: 1 to 3.5 µg/mL
MIC [2]: 3.5 to 12.5 µg/mL
MIC [3]: < 1 µg/mL
MIC [4]: < 1 µg/mL
MIC [5]: 12.5 to 150 µg/mL
MIC [6]: 3.5 to 12.5 µg/mL
MIC [7]: 12.5 to 150 µg/mL
MIC [8]: 12.5 to 150 µg/mL
MIC [9]: 12.5 to 150 µg/mL

CCc1ccc2[nH]c(-c3[nH]c(=O)c(C(=O)O)c(O)c3C)cc2c1 [Cpd 386, 6-(5-ethyl-1H-indol-2-yl)-4-hydroxy-5-methyl-2-oxo-1,2-dihydropyridine-3-carboxylic acid]
MIC [1]: 12.5 to 150 µg/mL (≈ 40 to 480 µM)
MIC [2]: 12.5 to 150 µg/mL (≈ 40 to 480 µM)
MIC [3]: 12.5 to 150 µg/mL (≈ 40 to 480 µM)
MIC [4]: 3.5 to 12.5 µg/mL (≈ 11.2 to 40 µM)
MIC [5]: 12.5 to 150 µg/mL (≈ 40 to 480 µM)
MIC [6]: 12.5 to 150 µg/mL (≈ 40 to 480 µM)
MIC [7]: 12.5 to 150 µg/mL (≈ 40 to 480 µM)
MIC [8]: 12.5 to 150 µg/mL (≈ 40 to 480 µM)
MIC [9]: 12.5 to 150 µg/mL (≈ 40 to 480 µM)

CCc1c(-c2ccc3cc(N(C)C)ccc3c2)[nH]c(=O)c(C(=O)O)c1O [Cpd 428, 6-(6-(dimethylamino)naphthalen-2-yl)-5-ethyl-4-hydroxy-2-oxo-1,2-dihydropyridine-3-carboxylic acid]
MIC [1]: 12.5 to 150 µg/mL (≈ 35.5 to 426 µM)
MIC [2]: 12.5 to 150 µg/mL (≈ 35.5 to 426 µM)
MIC [3]: 12.5 to 150 µg/mL (≈ 35.5 to 426 µM)
MIC [4]: < 1 µg/mL
MIC [5]: < 1 µg/mL
MIC [6]: 12.5 to 150 µg/mL (≈ 35.5 to 426 µM)
MIC [7]: 12.5 to 150 µg/mL (≈ 35.5 to 426 µM)
MIC [8]: 12.5 to 150 µg/mL (≈ 35.5 to 426 µM)
MIC [9]: 12.5 to 150 µg/mL (≈ 35.5 to 426 µM)

Cc1c(-c2ccc3cn[nH]c3c2)[nH]c(=O)c(C(=O)O)c1O [Cpd 399, 4-hydroxy-6-(1H-indazol-6-yl)-5-methyl-2-oxo-1,2-dihydropyridine-3-carboxylic acid]
MIC [1]: 12.5 to 150 µg/mL (≈ 43.8 to 526 µM)
MIC [2]: 12.5 to 150 µg/mL (≈ 43.8 to 526 µM)
MIC [3]: 12.5 to 150 µg/mL (≈ 43.8 to 526 µM)
MIC [4]: 12.5 to 150 µg/mL (≈ 43.8 to 526 µM)
MIC [5]: 12.5 to 150 µg/mL (≈ 43.8 to 526 µM)
MIC [6]: 12.5 to 150 µg/mL (≈ 43.8 to 526 µM)
MIC [7]: 12.5 to 150 µg/mL (≈ 43.8 to 526 µM)
MIC [8]: 12.5 to 150 µg/mL (≈ 43.8 to 526 µM)
MIC [9]: 12.5 to 150 µg/mL (≈ 43.8 to 526 µM)
